Results reported in patent US20250304559A1, “Ether-Linked Antiviral Compounds” (Pfizer Inc., priority 2021, published 2025).
Like-named read-outs stand apart in the source and are kept apart here.

What was measured:
SARS-CoV-2 3CL protease = molecular target: T1, SARS-CoV-2 3CL protease (Severe acute respiratory syndrome coronavirus 2, UniProt P0DTD1); test: SARS-CoV-2 Coronavirus 3C Protease FRET Assay; assay type: biochemical; settings: Morrison equation fit, 15 nM enzyme, 25 μM peptide substrate
T1 construct: measures the activity of full-length SARS-CoV-2 3CL protease

[1] = test system: SARS-CoV-2 (USA_WA1/2020); test: Antiviral Activity from SARS-CoV-2 Infection (cytopathic effect, Cell Titer-Glo); assay type: cell-based; settings: Severe acute respiratory syndrome coronavirus 2, Vero C1008, 72 h, VeroE6 cells enriched for hACE2, MOI 0.002, 3-day incubation; tested alone or with P-gp inhibitor CP-100356 2 μM (table does not say which); read-out: Geometric Mean EC50
[2] = Examples 14-78 and 114 (second head of Table 2), read-out: Geometric Mean Ki (nM) IC50
[3] = Examples 1-13, 60 minutes at 23° C., read-out: Geometric Mean Ki

SMILES	Ki (SARS-CoV-2 3CL protease; [2]) [nM]	EC50 [1] [nM]	Ki (SARS-CoV-2 3CL protease; [3]) [nM]
CC(C)[C@H](NS(=O)(=O)C(F)(F)F)C(=O)N1C[C@H]2[C@@H]([C@H]1C(=O)N[C@@H](C[C@@H]1CC(=O)NC1=O)C(=O)COc1ccc(F)cc1F)C2(C)C [Example 49, (1R,2S,5S)-N-{(2S)-4-(2,4-difluorophenoxy)-1-[(3R)-2,5-dioxopyrrolidin-3-yl]-3-oxobutan-2-yl}-6,6-dimethyl-3-[N-(trifluoromethanesulfonyl)-L-valyl]-3-azabicyclo[3.1.0]hexane-2-carboxamide]	9.93	2010	–
Cn1nc(C(F)(F)F)cc1OCC(=O)[C@H](C[C@@H]1CCNC1=O)NC(=O)[C@@H]1[C@@H]2[C@H](CN1C(=O)[C@@H](NS(C)(=O)=O)C(C)(C)C)C2(C)C [Example 7, (1R,2S,5S)-6,6-dimethyl-3-[3-methyl-N-(methylsulfonyl)-L-valyl]-N-{(2S)-4-{[1-methyl-3-(trifluoromethyl)-1H-pyrazol-5-yl]oxy}-3-oxo-1-[(3S)-2-oxopyrrolidin-3-yl]butan-2-yl}-3-azabicyclo[3.1.0]hexane-2-carboxamide]	–	1260	2.88
CCC([C@H](NS(=O)(=O)C(F)(F)F)C(=O)N1C[C@H]2[C@@H]([C@H]1C(=O)N[C@@H](C[C@@H]1CCNC1=O)C(=O)COc1ccc(F)cc1F)C2(C)C)C(F)(F)F (stereo in doubt) [Example 63, (1R,2S,5S)-N-{(2S)-4-(2,4-difluorophenoxy)-3-oxo-1-[(3S)-2-oxopyrrolidin-3-yl]butan-2-yl}-6,6-dimethyl-3-[3′,3′,3′-trifluoro-N-(trifluoromethanesulfonyl)-L-isoleucyl]-3-azabicyclo[3.1.0]hexane-2-carboxamide]	54.2	5550	–
COC(=O)N[C@H](C(=O)N1C[C@H]2[C@@H]([C@H]1C(=O)N[C@@H](C[C@@H]1CCNC1=O)C(=O)COc1cccc(C(F)(F)F)c1)C2(C)C)C(C)(C)C [Example 17, methyl {(2S)-1-[(1R,2S,5S)-6,6-dimethyl-2-({(2S)-3-oxo-1-[(3S)-2-oxopyrrolidin-3-yl]-4-[3-(trifluoromethyl)phenoxy]butan-2-yl}carbamoyl)-3-azabicyclo[3.1.0]hexan-3-yl]-3,3-dimethyl-1-oxobutan-2-yl}carbamate]	< 0.443	13.3	–
CCc1c(OCC(=O)[C@H](C[C@@H]2CCNC2=O)NC(=O)[C@@H]2[C@@H]3[C@H](CN2C(=O)[C@@H](NC(=O)C(F)(F)F)C(C)C)C3(C)C)noc1C [Example 67, (1R,2S,5S)-N-{(2S)-4-[(4-ethyl-5-methyl-1,2-oxazol-3-yl)oxy]-3-oxo-1-[(3S)-2-oxopyrrolidin-3-yl]butan-2-yl}-6,6-dimethyl-3-[N-(trifluoroacetyl)-L-valyl]-3-azabicyclo[3.1.0]hexane-2-carboxamide]	107	1750	–
Cn1nc(C(F)(F)F)cc1OCC(=O)[C@H](C[C@@H]1CCNC1=O)NC(=O)[C@@H]1[C@@H]2[C@H](CN1C(=O)[C@@H](NC(=O)C(F)(F)F)C(C)(C)C)C2(C)C [Example 8, (1R,2S,5S)-6,6-dimethyl-3-[3-methyl-N-(trifluoroacetyl)-L-valyl]-N-{(2S)-4-{[1-methyl-3-(trifluoromethyl)-1H-pyrazol-5-yl]oxy}-3-oxo-1-[(3S)-2-oxopyrrolidin-3-yl]butan-2-yl}-3-azabicyclo[3.1.0]hexane-2-carboxamide]	–	49.1	2.87
COC(=O)N[C@H](C(=O)N1C[C@H]2[C@@H]([C@H]1C(=O)N[C@@H](C[C@@H]1CCNC1=O)C(=O)COc1cccc(Cl)c1)C2(C)C)C(C)(C)C [Example 16, methyl {(2S)-1-[(1R,2S,5S)-2-({(2S)-4-(3-chlorophenoxy)-3-oxo-1-[(3S)-2-oxopyrrolidin-3-yl]butan-2-yl}carbamoyl)-6,6-dimethyl-3-azabicyclo[3.1.0]hexan-3-yl]-3,3-dimethyl-1-oxobutan-2-yl}carbamate]	0.21	11.6	–
CC(C)[C@H](NC(=O)C(F)(F)F)C(=O)N1C[C@H]2[C@@H]([C@H]1C(=O)N[C@@H](C[C@@H]1CC(O)NC1=O)C(=O)COc1ccc(F)cc1F)C2(C)C (stereo partly drawn) [Example 39, (1R,2S,5S)-N-{(2S)-4-(2,4-difluorophenoxy)-1-[(3R)-5-hydroxy-2-oxopyrrolidin-3-yl]-3-oxobutan-2-yl}-6,6-dimethyl-3-[N-(trifluoroacetyl)-L-valyl]-3-azabicyclo[3.1.0]hexane-2-carboxamide]	3.7	306	–
Cc1ccc2c(OCC(=O)[C@H](C[C@@H]3CCNC3=O)NC(=O)[C@@H]3[C@@H]4[C@H](CN3C(=O)[C@@H](NC(=O)C(F)(F)F)C(C)C)C4(C)C)noc2c1 [Example 51, (1R,2S,5S)-6,6-dimethyl-N-{(2S)-4-[(6-methyl-1,2-benzoxazol-3-yl)oxy]-3-oxo-1-[(3S)-2-oxopyrrolidin-3-yl]butan-2-yl}-3-[N-(trifluoroacetyl)-L-valyl]-3-azabicyclo[3.1.0]hexane-2-carboxamide]	10.5	94.2	–
CC(C)[C@H](NC(=O)C(F)(F)F)C(=O)N1C[C@H]2[C@@H]([C@H]1C(=O)N[C@@H](C[C@@H]1CCNC1=O)C(=O)COc1ccc(F)cc1F)C2(C)C [Example 1, (1R,2S,5S)-N-{(2S)-4-(2,4-difluorophenoxy)-3-oxo-1-[(3S)-2-oxopyrrolidin-3-yl]butan-2-yl}-6,6-dimethyl-3-[N-(trifluoroacetyl)-L-valyl]-3-azabicyclo[3.1.0]hexane-2-carboxamide]	–	26.9	2.02
CC(C)[C@H](NC(=O)C(F)(F)F)C(=O)N1C[C@H]2[C@@H]([C@H]1C(=O)N[C@@H](C[C@@H]1CCNC1=O)C(=O)COc1nnc(C(F)(F)F)n1C)C2(C)C [Example 74, (1R,2S,5S)-6,6-dimethyl-N-{(2S)-4-{[4-methyl-5-(trifluoromethyl)-4H-1,2,4-triazol-3-yl]oxy}-3-oxo-1-[(3S)-2-oxopyrrolidin-3-yl]butan-2-yl}-3-[N-(trifluoroacetyl)-L-valyl]-3-azabicyclo[3.1.0]hexane-2-carboxamide]	919	25700	–
CC(C)[C@H](NC(=O)C(F)(F)F)C(=O)N1C[C@H]2[C@@H]([C@H]1C(=O)N[C@@H](C[C@@H]1CCNC1=O)C(=O)COc1cc(F)cc(F)c1)C2(C)C [Example 58, (1R,2S,5S)-N-{(2S)-4-(3,5-difluorophenoxy)-3-oxo-1-[(3S)-2-oxopyrrolidin-3-yl]butan-2-yl}-6,6-dimethyl-3-[N-(trifluoroacetyl)-L-valyl]-3-azabicyclo[3.1.0]hexane-2-carboxamide]	17.1	88.7	–
COC(=O)N[C@H](C(=O)N1C[C@H]2[C@@H]([C@H]1C(=O)N[C@@H](C[C@@H]1CCNC1=O)C(=O)COc1ccccc1)C2(C)C)C(C)(C)C [Example 30, methyl{(2S)-1-[(1R,2S,5S)-6,6-dimethyl-2-({(2S)-3-oxo-1-[(3S)-2-oxopyrrolidin-3-yl]-4-phenoxybutan-2-yl}carbamoyl)-3-azabicyclo[3.1.0]hexan-3-yl]-3,3-dimethyl-1-oxobutan-2-yl}carbamate]	2.15	27.2	–
COC(=O)N[C@H](C(=O)N1C[C@H]2[C@@H]([C@H]1C(=O)N[C@@H](C[C@@H]1CCNC1=O)C(=O)COc1ccccc1F)C2(C)C)C(C)(C)C [Example 22, methyl {(2S)-1-[(1R,2S,5S)-2-({(2S)-4-(2-fluorophenoxy)-3-oxo-1-[(3S)-2-oxopyrrolidin-3-yl]butan-2-yl}carbamoyl)-6,6-dimethyl-3-azabicyclo[3.1.0]hexan-3-yl]-3,3-dimethyl-1-oxobutan-2-yl}carbamate]	4.78	52	–
CC(C)[C@H](NC(=O)C(F)(F)F)C(=O)N1C[C@H]2[C@@H]([C@H]1C(=O)N[C@@H](C[C@@H]1CCNC1=O)C(=O)COc1nc(C(F)(F)F)nn1C)C2(C)C [Example 55, (1R,2S,5S)-6,6-dimethyl-N-{(2S)-4-{[1-methyl-3-(trifluoromethyl)-1H-1,2,4-triazol-5-yl]oxy}-3-oxo-1-[(3S)-2-oxopyrrolidin-3-yl]butan-2-yl}-3-[N-(trifluoroacetyl)-L-valyl]-3-azabicyclo[3.1.0]hexane-2-carboxamide]	11.6	642	–
CC(C)(C)[C@H](NC(=O)C(F)(F)F)C(=O)N1C[C@H]2[C@@H]([C@H]1C(=O)N[C@@H](C[C@@H]1CCNC1=O)C(=O)COc1cccc(C(F)(F)F)c1)C2(C)C [Example 12, (1R,2S,5S)-6,6-dimethyl-3-[3-methyl-N-(trifluoroacetyl)-L-valyl]-N-{(2S)-3-oxo-1-[(3S)-2-oxopyrrolidin-3-yl]-4-[3-(trifluoromethyl)phenoxy]butan-2-yl}-3-azabicyclo[3.1.0]hexane-2-carboxamide]	–	51.2	6.38
CC(C)[C@H](NC(=O)C(F)(F)F)C(=O)N1C[C@H]2[C@@H]([C@H]1C(=O)N[C@@H](C[C@@H]1CCNC1=O)C(=O)COc1nnc3c(F)cccn13)C2(C)C [Example 75, (1R,2S,5S)-N-{(2S)-4-[(8-fluoro[1,2,4]triazolo[4,3-a]pyridin-3-yl)oxy]-3-oxo-1-[(3S)-2-oxopyrrolidin-3-yl]butan-2-yl}-6,6-dimethyl-3-[N-(trifluoroacetyl)-L-valyl]-3-azabicyclo[3.1.0]hexane-2-carboxamide]	2900	> 76800	–
Cc1nsnc1OCC(=O)[C@H](C[C@@H]1CCNC1=O)NC(=O)[C@@H]1[C@@H]2[C@H](CN1C(=O)[C@@H](NC(=O)C(F)(F)F)C(C)C)C2(C)C [Example 46, (1R,2S,5S)-6,6-dimethyl-N-{(2S)-4-[(4-methyl-1,2,5-thiadiazol-3-yl)oxy]-3-oxo-1-[(3S)-2-oxopyrrolidin-3-yl]butan-2-yl}-3-[N-(trifluoroacetyl)-L-valyl]-3-azabicyclo[3.1.0]hexane-2-carboxamide]	8.21	–	–
